Measurements from US11834460B2, “Imide-based modulators of proteolysis and associated methods of use” (YALE UNIVERSITY, priority 2018, dated 2023).

Each compound was assayed on c-Myc (assay: c-Myc ELISA assay protocol in 22RV-1 cells). Conditions: 18 h, read-out: cMyc IC50.
Format: cell-based, human
Method: In each bioassay, cells were treated with varying amounts of compounds encompassed by the present disclosure, as shown in Table 1. The degradation of the following proteins were evaluated in this study: TANK-binding kinase 1 (TBK1), estrogen receptor α (ERα), bromodomain-containing protein 4 (BRD4), androgen receptor (AR), and c-Myc.
5. c-Myc ELISA Assay Protocol
22RV-1 cells were purchased from ATCC and cultured in RPMI+10% FBS media. Cells were harvested using trypsin (Gibco #25200-114), counted and seeded at 30,000 cells/well at a volume of 75 μL/well in RPMI +10% FBS media in 96-well plates. The cells were dosed with compounds diluted in 0.1% DMSO, incubated for 18 h then washed and lysed in 50 uL RIPA buffer (50 mM Tris pH8, 150 mM NaCl, 1% Tx-100, 0.1% SDS, 0.5% sodium deoxycholate) supplemented with protease and phosphatase inhibitors. The lysates were clarified at 4000 rpm at 4° C. for 10 minutes then aliquots were added into a 96-well ELISA plate of Novex Human c-myc ELISA kit from Life Technologies Catalog #KHO2041. 50 ul of c-Myc Detection antibody was added into every well, the plates incubated at room temperature for 3 hrs, then washed with ELISA wash buffer. 100 uL of the anti-rabbit IgG-HRP secondary antibody was added to each well and incubated at room temperature for 30 minutes. The plates were washed with ELISA wash buffer, 100 μL TMB added to each well, and then monitored every 5 minutes for a color change. 100 μL of stop solution is added and the plates read at 450 nm.

Row | Structure (SMILES) | IC50
1 | Cc1sc2c(c1C)C(c1ccc(Cl)cc1)=N[C@@H](CC(=O)N[C@@H](C)c1ccc(OCCOCCNc3cccc4c3CN(C3CCC(=O)NC3=O)C4=O)cc1)c1nnc(C)n1-2 (stereo partly shown) [Compound 42] | < 0.05 µM
2 | Cc1sc2c(c1C)C(c1ccc(Cl)cc1)=N[C@@H](CC(=O)NCCOCCNc1cccc3c1CN(C1CCC(=O)NC1=O)C3=O)c1nnc(C)n1-2 (stereo partly drawn) [Compound 39, 2-[(9S)-7-(4-chlorophenyl)-4,5,13-trimethyl-3-thia-1,8,11,12-tetraazatricyclo [8.3.0.0^2,^6]trideca-2(6),4,7,10,12-pentaen-9-yl]-N-[2-(2-{[2-(2,6-dioxopiperidin-3-yl)-1-oxo-2,3-dihydro-1H-isoindol-4-yl]amino}ethoxy)ethyl]acetamide] | > 0.05 µM
3 | Cc1sc2c(c1C)C(c1ccc(Cl)cc1)=N[C@@H](CC(=O)NCCCNc1cccc3c1CN(C1CCC(=O)NC1=O)C3=O)c1nnc(C)n1-2 (stereo partly drawn) [Compound 46, 2-[(9S)-7-(4-chlorophenyl)-4,5,13-trimethyl-3-thia-1,8,11,12-tetraazatricyclo [8.3.0.0^2,^6]trideca-2(6),4,7,10,12-pentaen-9-yl]-N-(3-{[2-(2,6-dioxopiperidin-3-yl)-1-oxo-2,3-dihydro-1H-isoindol-4-yl]amino}propyl) acetamide] | > 0.05 µM
4 | Cc1sc2c(c1C)C(c1ccc(Cl)cc1)=N[C@@H](CC(=O)N[C@H](C)c1ccc(OCCOCCNc3cccc4c3C(=O)N(C3CCC(=O)NC3=O)C4=O)cc1)c1nnc(C)n1-2 (stereo partly drawn) [Compound 29, 2-((9S)-7-(4-chlorophenyl)-4,5,13-trimethyl-3-thia-1,8,11,12-tetraazatricyclo [8.3.0.02,6]trideca-2(6),4,7,10, 12-pentaen-9-yl) N-((1R)-1-(4-(2-(2-((2-(2,6-dioxopiperidin-3-yl)-1,3-dioxo-2,3-dihydro-1H-isoindol-4-yl)amino)ethoxy)ethoxy)phenyl)ethyl) acetamide] | < 0.05 µM
5 | Cc1sc2c(c1C)C(c1ccc(Cl)cc1)=N[C@@H](CC(=O)NCCCOCCCNc1cccc3c1C(=O)N(C1CCC(=O)NC1=O)C3=O)c1nnc(C)n1-2 (stereo partly drawn) [Compound 24, 2-((9S)-7-(4-chlorophenyl)-4,5,13-trimethyl-3-thia-1,8,11,12-tetraazatricyclo [8.3.0.02,6]trideca-2(6),4,7,10, 12-pentaen-9-yl)-N-(3-(3-((2-(2,6-dioxopiperidin-3-yl)-1,3-dioxo-2,3-dihydro-1H-isoindol-4-yl)amino)propoxy)propyl)acetamide] | < 0.05 µM
6 | Cc1sc2c(c1C)C(c1ccc(Cl)cc1)=N[C@@H](CC(=O)NCCCCNc1cccc3c1CN(C1CCC(=O)NC1=O)C3=O)c1nnc(C)n1-2 (stereo partly drawn) [Compound 47, 2-[(9S)-7-(4-chlorophenyl)-4,5,13-trimethyl-3-thia-1,8,11,12-tetraazatricyclo [8.3.0.0^2,^6]trideca-2(6),4,7,10,12-pentaen-9-yl]-N-(4-{[2-(2,6-dioxopiperidin-3-yl)-1-oxo-2,3-dihydro-1H-isoindol-4-yl]amino}butyl) acetamide] | > 0.05 µM
7 | Cc1sc2c(c1C)C(c1ccc(Cl)cc1)=N[C@@H](CC(=O)N[C@H]1CCN(C(=O)c3ccc(NCCNc4cccc5c4C(=O)N(C4CCC(=O)NC4=O)C5=O)cc3)C1)c1nnc(C)n1-2 (stereo partly drawn) [Compound 52, 2-[(9S)-7-(4-chlorophenyl)-4,5,13-trimethyl-3-thia-1,8,11,12-tetraazatricyclo [8.3.0.0^2,^6]trideca-2(6),4,7,10,12-pentaen-9-yl]-N-[(3S)-1-{4-[(2-{[2-(2,6-dioxopiperidin-3-yl)-1,3-dioxo-2,3-dihydro-1H-isoindol-4-yl]amino}ethyl)amino]benzoyl}pyrrolidin-3-yl]acetamide] | > 0.05 µM
8 | Cc1sc2c(c1C)C(c1ccc(Cl)cc1)=N[C@@H](CC(=O)Nc1ccc(OCCOCCOCCOCCNc3cccc4c3C(=O)N(C3(C)CCC(=O)NC3=O)C4=O)cc1)c1nnc(C)n1-2 (stereo partly drawn) [Compound 49, 2-[(9S)-7-(4-chlorophenyl)-4,5,13-trimethyl-3-thia-1,8,11,12-tetraazatricyclo [8.3.0.0^2,^6]trideca-2(6),4,7,10,12-pentaen-9-yl]-N-[4-({1-[2-(3-methyl-2,6-dioxopiperidin-3-yl)-1,3-dioxo-2,3-dihydro-1H-isoindol-4-yl]-4,7,10-trioxa-1-azadodecan-12-yl}oxy)phenyl] acetamide] | > 0.05 µM
9 | Cc1sc2c(c1C)C(c1ccc(Cl)cc1)=N[C@@H](CC(=O)NCCCOCCCNc1cccc3nc(C)n(C4CCC(=O)NC4=O)c(=O)c13)c1nnc(C)n1-2 (stereo partly drawn) [Compound 58, 2-[(9S)-7-(4-chlorophenyl)-4,5,13-trimethyl-3-thia-1,8,11,12-tetraazatricyclo [8.3.0.0^2,^6]trideca-2(6),4,7,10,12-pentaen-9-yl]-N-[3-(3-{[3-(2,6-dioxopiperidin-3-yl)-2-methyl-4-oxo-3,4-dihydroquinazolin-5-yl]amino}propoxy)propyl]acetamide] | > 0.05 µM

More lines, now with the values ahead:

Row | IC50 | Structure (SMILES)
10 | > 0.05 µM | Cc1sc2c(c1C)C(c1ccc(Cl)cc1)=N[C@@H](CC(=O)Nc1ccc(OCCOCCOCCOCCNc3cccc4c3C(=O)N(C3CCC(=O)N(C)C3=O)C4=O)cc1)c1nnc(C)n1-2 (stereo partly drawn) [Compound 50, 2-[(9S)-7-(4-chlorophenyl)-4,5,13-trimethyl-3-thia-1,8,11,12-tetraazatricyclo [8.3.0.0^2,^6]trideca-2(6),4,7,10,12-pentaen-9-yl]-N-[4-({1-[2-(1-methyl-2,6-dioxopiperidin-3-yl)-1,3-dioxo-2,3-dihydro-1H-isoindol-4-yl]-4,7,10-trioxa-1-azadodecan-12-yl}oxy)phenyl] acetamide]
11 | < 0.05 µM | Cc1sc2c(c1C)C(c1ccc(Cl)cc1)=N[C@@H](CC(=O)N[C@@H](C)c1ccc(OCCCOCCNc3cccc4c3C(=O)N(C3CCC(=O)NC3=O)C4=O)cc1)c1nnc(C)n1-2 (stereo partly drawn) [Compound 41, 2-[9S)-7-(4-chlorophenyl)-4,5,13-trimethyl-3-thia-1,8,11,12-tetraazatricyclo [8.3.0.0^2,^6]trideca-2(6),4,7,10,12-pentaen-9-yl]-N-[(1S)-1-{4-[3-(2-{[2-(2,6-dioxopiperidin-3-yl)-1,3-dioxo-2,3-dihydro-1H-isoindol-4-yl]amino}ethoxy)propoxyphenyl}ethyl]acetamide]
12 | < 0.05 µM | Cc1sc2c(c1C)C(c1ccc(Cl)cc1)=N[C@H](CC(=O)Nc1ccc(OCCOCCOCCOCCNc3cccc4c3CN(C3CCC(=O)NC3=O)C4=O)cc1)c1nnc(C)n1-2 (stereo partly drawn) [Compound 35, 2-((9R)-7-(4-chlorophenyl)-4,5,13-trimethyl-3-thia-1,8,11,12-tetraazatricyclo [8.3.0.02,6]trideca-2(6),4,7,10, 12-pentaen-9-yl)-N-(4-((1-(2-(2,6-dioxopiperidin-3-yl)-1-oxo-2,3-dihydro-1H-isoindol-4-yl)-4,7,10-trioxa-1-azadodecan-12-yl)oxy)phenyl) acetamide]
13 | < 0.05 µM | Cc1nnc2n1C1=C(C(c3ccc(Cl)cc3)=N[C@H]2CC(=O)NCCCCCNc2cccc3c2C(=O)N(C2CCC(=O)NC2=O)C3=O)C(C)C(C)S1 (stereo partly drawn) [Compound 45, 2-[(9S)-7-(4-chlorophenyl)-4,5,13-trimethyl-3-thia-1,8,11,12-tetraazatricyclo [8.3.0.0^2,^6]trideca-2(6),4,7,10,12-pentaen-9-yl]-N-(5-{[2-(2,6-dioxopiperidin-3-yl)-1,3-dioxo-2,3-dihydro-1H-isoindol-4-yl]amino}pentyl) acetamide]
14 | < 0.05 µM | Cc1sc2c(c1C)C(c1ccc(Cl)cc1)=N[C@@H](CC(=O)NCCCCCNc1cccc3c1CN(C1CCC(=O)NC1=O)C3=O)c1nnc(C)n1-2 (stereo partly drawn) [Compound 57, 2-[(9S)-7-(4-chlorophenyl)-4,5,13-trimethyl-3-thia-1,8,11,12-tetraazatricyclo [8.3.0.0^2,^6]trideca-2(6),4,7,10,12-pentaen-9-yl]-N-(5-{[2-(2,6-dioxopiperidin-3-yl)-1-oxo-2,3-dihydro-1H-isoindol-4-yl]amino}pentyl) acetamide]
15 | < 0.05 µM | Cc1sc2c(c1C)C(c1ccc(Cl)cc1)=N[C@@H](CC(=O)Nc1ccc(OCCCOCCNc3cccc4c3C(=O)N(C3CCC(=O)NC3=O)C4=O)c(F)c1)c1nnc(C)n1-2 (stereo partly drawn) [Compound 32, 2-((9S)-7-(4-chlorophenyl)-4,5,13-trimethyl-3-thia-1,8,11,12-tetraazatricyclo [8.3.0.02,6]trideca-2(6),4,7,10, 12-pentaen-9-yl)-N-(4-(3-(2-((2-(2,6-dioxopiperidin-3-yl)-1,3-dioxo-2,3-dihydro-1H-isoindol-4-yl)amino)ethoxy)propoxy)-3-fluorophenyl) acetamide]
16 | < 0.05 µM | Cc1sc2c(c1C)C(c1ccc(Cl)cc1)=N[C@@H](CC(=O)NCCCOCCCNc1cccc3c1CN(C1CCC(=O)NC1=O)C3=O)c1nnc(C)n1-2 (stereo partly drawn) [Compound 54, 2-[(9S)-7-(4-chlorophenyl)-4,5,13-trimethyl-3-thia-1,8,11,12-tetraazatricyclo [8.3.0.0^2,^6]trideca-2(6),4,7,10,12-pentaen-9-yl]-N-[3-(3-{[2-(2,6-dioxopiperidin-3-yl)-1-oxo-2,3-dihydro-1H-isoindol-4-yl]amino}propoxy)propyl]acetamide]
